According to US20020039778A1, “Isolated and purified DNA molecule and protein for the degradation of triazine compounds” (Regents of the University of Minnesota, priority 1995, published 2002):

Assays:
[1] = target: T1, N-ethylammeline chlorohydrolase (TrzA) (Gordonia rubripertincta, UniProt Q52725); conditions: cited from earlier work
T1 sequence (Q52725 1-477): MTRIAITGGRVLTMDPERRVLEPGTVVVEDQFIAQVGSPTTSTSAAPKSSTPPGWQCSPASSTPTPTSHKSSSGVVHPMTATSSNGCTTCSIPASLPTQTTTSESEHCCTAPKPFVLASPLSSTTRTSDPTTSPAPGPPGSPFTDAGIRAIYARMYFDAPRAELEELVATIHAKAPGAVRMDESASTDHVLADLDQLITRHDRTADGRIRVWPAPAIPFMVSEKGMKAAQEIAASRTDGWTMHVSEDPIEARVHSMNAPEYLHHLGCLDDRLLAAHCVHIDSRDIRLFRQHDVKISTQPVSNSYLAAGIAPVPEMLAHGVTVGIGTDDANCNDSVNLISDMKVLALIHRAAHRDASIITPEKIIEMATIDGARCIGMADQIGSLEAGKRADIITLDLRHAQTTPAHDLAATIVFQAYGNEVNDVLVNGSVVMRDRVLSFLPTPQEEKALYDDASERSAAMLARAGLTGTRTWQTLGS

[2] = target: T2, atrazine chlorohydrolase (AtzA) (Pseudomonas sp., UniProt P72156); assay: Substrate range of purified AtzA in vitro; type: biochemical, Pseudomonas sp. strain ADP; design: made in house; host or cells: E. coli transformed with pMD4 (1.9-kb AvaI genomic fragment in pACYC184); conditions: purified enzyme in vitro
Method: High performance liquid chromatography (HPLC) analysis was performed using a Hewlett-Packard HP 1090 Liquid Chromatograph system equipped with a photodiode array detector and interfaced to an HP 79994A Chemstation. […] Linear gradients of 0-6 minutes, 10-25% acetonitrile (ACN); 6-21 minutes, 25-65% ACN; 21-23 minutes, 65-100% ACN; and 23-25 minutes 100% ACN, were used. Spectral data of the column eluent was acquired between 200-400 nm (12 nm bandwidth per channel) at a sampling frequency of 640 milliseconds. Spectra were referenced against a signal at 550 nm.
The solution was loaded onto a Mono Q HR 16/10 Column (Pharmacia LKB Biotechnology, Uppsala, Sweden). The column was washed with 25 mM MOPS buffer (pH 6.9), and the protein was eluted with a 0-0.5 M KCl gradient. Protein eluting from the column was monitored at 280 nm by using a Pharmacia U.V. protein detector. Pooled fractions containing the major peak were dialyzed overnight against 1 liter 25 mM MOPS buffer (pH 6.9). The dialyzed material was assayed for atrazine degradation ability by using HPLC analysis (see above) and analyzed for purity by sodium dodecyl sulfate (SDS) polyacrylamide gel electrophoreses (Laemlli).
The AtzA protein was examined for its ability to degrade various triazine compounds in vitro.

[3] = target: T2, atrazine chlorohydrolase (AtzA); assay: Enzyme kinetics of purified AtzA (HPLC)
Method: (§2) Enzyme Kinetics. […] The reactions were stopped by boiling the reaction tubes at specific times, the addition of 500 μl acetonitrile and rapid freezing at −80° C. Thawed samples were centrifuged at 14,000 rpm for 10 minutes, the supernatants were filtered through a 0.2 μM filter, and placed into crimp-seal HPLC vials. HPLC analysis was done as described above.

[4] = tested on: B. japonicum strain USDA 123 (pMD1); assay: Atrazine degradation by Bradyrhizobium japonicum carrying pMD1 (plate clearing, HPLC); type: cell-based
Method: Atrazine degradation gene expressed in Bradyrhizobium japonicum. […] The pMD1 was transferred from E. coli DH5α (pMD1) to B. japonicum strains USDA 123 by conjugation. This was done by using helper plasmid pRK2073 and the triparental mating procedure of Leong et al., J. Bio. Chem, 257, 8724-8730 (1982). This was done using a modified patch mating technique. Equal quantities of E. coli DH5α (pMD1), […] and spread to the size of a nickel. The patch was incubated for 4 days at 28° C. and the resulting bacterial growth was removed from the pate, serially diluted in 0.85% NaCl plus 0.01% tween 80, and spread onto the surface of minimal AG plates (Ag without yeast extract) containing 60 μg/ml tetracycline. Plates were incubated for 2 weeks at 28° C. […] Atrazine degradation was verified by HPLC analysis. The identity of transconjugants was verified by using strain specific fluorescent antibodies prepared according to Schmidt et al., J. Bacteriol., 95, 1987-1992 (1968).

[5] = tested on: E. coli DH5α (pMD1 or pMD2); assay: Effect of simple nitrogen sources on atrazine degradation (plate clearing); type: cell-based, Escherichia coli
Method: (§1) Analytical methods: plate assays, high performance liquid chromatography (HPLC), thin layer chromatography (TLC), and liquid-liquid partitioning analyses. Atrazine or hydroxyatrazine were incorporated in solid LB or minimal medium, as described in Mandelbaum et al., Appl. Environ. Microbiol., 61, 1451-1457 (1995), at a final concentration of 500 μg/ml to produce an opaque suspension of small particles in the clear agar. The degradation of atrazine or hydroxyatrazine by wild-type and recombinant bacteria was indicated by a zone of clearing surrounding colonies.

[6] = tested on: Pseudomonas species strain ADP; assay: as above; type: cell-based; conditions: solid media with 500 ppm atrazine, 2 weeks of incubation at 28° C. or 37° C.
Method: as §1

CCNc1nc(Cl)nc(NC(C)C)n1 = assay: purified protein, by the assay type; conditions: other: purified AtzA 50 μg/ml, 25 mM MOPS pH 6.9, room temperature
Method: as §2

[7] = protein concentration of 50 mg/liter

T2 sequence (P72156 whole entry, the tested form may be a part): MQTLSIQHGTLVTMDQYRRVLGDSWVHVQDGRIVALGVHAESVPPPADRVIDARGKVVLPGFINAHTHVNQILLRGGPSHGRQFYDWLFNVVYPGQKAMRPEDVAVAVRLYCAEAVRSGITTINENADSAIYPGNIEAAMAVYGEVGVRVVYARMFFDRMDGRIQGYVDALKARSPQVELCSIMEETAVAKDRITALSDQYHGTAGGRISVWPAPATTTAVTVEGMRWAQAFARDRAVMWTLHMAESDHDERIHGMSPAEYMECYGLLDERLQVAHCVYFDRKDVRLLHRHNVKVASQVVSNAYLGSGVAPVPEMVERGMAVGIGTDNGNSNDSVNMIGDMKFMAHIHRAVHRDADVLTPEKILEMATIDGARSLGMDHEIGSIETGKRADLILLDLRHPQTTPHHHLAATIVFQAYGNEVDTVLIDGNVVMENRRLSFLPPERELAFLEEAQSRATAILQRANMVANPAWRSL

Compound: CCNc1nc(N)nc(Cl)n1 [Desisopropylatrazine, 2-chloro-4-ethylamino-6-amino-s-triazine]
- Degradation of substrate by TrzA [1]: ability to dechlorinate
- Km ([1]; reported for the related triazine hydrolase TrzA): 82 µM
- Degradation of substrate by AtzA ([2]; listed as deisopropylatrazine): ability to dechlorinate

Compound: Nc1nc(N)nc(N)n1 [Melamine, 2,4,6-triamino-s-triazine]
- Degradation of substrate by AtzA [2]: not substrates
- Degradation of substrate by AtzA ([2]; listed as melamine): does not degrade

Compound: CCNc1nc(Cl)nc(NC(C)C)n1 [Atrazine, 2-chloro-4-ethylamino-6-isopropylamino-1,3,5-s-triazine]
- Degradation of substrate by TrzA [1]: does not degrade
- time to degrade about 100 μM of atrazine to about 1 μM [3, 7]: about 1.35 hours
- time to degrade about 30 ppm of atrazine to about 3 ppb [3, 7]: about 2.6 hours
- Km ([3]; read-out: Km of AtzA for atrazine, purified AtzA 50 μg/ml, 25 mM MOPS pH 6.9, room temperature): 125 µM
- time to clear atrazine on plates ([4]; AG media plates containing up to 500 ppm atrazine): 10 days
- atrazine in overnight culture broth by HPLC ([4]; supplied atrazine 33 ppm): no atrazine detectable

Compound: CCNc1nc(Cl)nc(NC(C)(C)C)n1 [Tertbutylazine, 2-chloro-4-ethylamino-6-terbutylamino-s-triazine]
- Degradation of substrate by AtzA [2]: not substrates

Compound: CCNc1nc(Cl)nc(NCC)n1 [Simazine, 2-chloro-4,6-diethylamino-s-triazine]
- Degradation of substrate by TrzA [1]: does not degrade

Compound: Cl.N [ammonium chloride]
- tolerance for ammonium chloride with concomitant atrazine degradation, relative to wild-type ([5]; E. coli DH5α (pMD1 or pMD2) vs Pseudomonas strain ADP): 40-80 fold
- ammonium chloride concentration in whose presence atrazine degradation (clearing) was observed ([5]; solid media with 500 ppm atrazine): ≤ 48 mM
- ammonium chloride concentration sufficient to inhibit visible clearing of atrazine [6]: 0.6 to 1.2 mM

Compound: atrazine chlorohydrolase (AtzA) (Pseudomonas sp. ADP)
- Km (CCNc1nc(Cl)nc(NC(C)C)n1): 125 µM
